{"source": "ChEMBL document CHEMBL4813985", "about": "“Lead optimization generates selenium-containing miconazole CYP51 inhibitors with improved pharmacological profile for the treatment of fungal infections” (Eur J Med Chem, 2021)", "key": {"[1]": {"test_system": "Candida albicans", "assay": "Antifungal activity against Candida albicans CPCC400616 measured after 24 hrs by broth microdilution assay", "format": "functional"}, "[2]": {"test_system": "Candida albicans", "assay": "Antifungal activity against Candida albicans ATCC SC5314 measured after 24 hrs by broth microdilution assay", "format": "functional"}, "[3]": {"test_system": "[Candida] zeylanoides", "assay": "Antifungal activity against Candida zeylanoides CMGCC2.3739 measured after 24 hrs by broth microdilution assay", "format": "functional", "settings": "Dujonia zeylanoides"}, "[4]": {"test_system": "Cryptococcus neoformans", "assay": "Antifungal activity against Cryptococcus neoformans CMGCC2.3161 measured after 72 hrs by broth microdilution assay", "format": "functional"}, "[5]": {"test_system": "Pichia kudriavzevii", "assay": "Antifungal activity against Candida krusei AS2.1045 measured after 24 hrs by broth microdilution assay", "format": "functional"}, "[6]": {"test_system": "Nakaseomyces glabratus", "assay": "Antifungal activity against Candida glabrata measured after 24 hrs by broth microdilution assay", "format": "functional"}, "[7]": {"test_system": "Candida parapsilosis", "assay": "Antifungal activity against Candida parapsilosis ATCC 22019 measured after 24 hrs by broth microdilution assay", "format": "functional", "settings": "Lodderomyces parapsilosis"}, "[8]": {"test_system": "Aspergillus fumigatus", "assay": "Antifungal activity against Aspergillus fumigatus CMGCC3.7795 measured after 72 hrs by broth microdilution assay", "format": "functional"}, "[9]": {"test_system": "Candida albicans", "assay": "Antifungal activity against fluconazole-resistant Candida albicans CaR assessed as inhibition of microbial growth after 24 hrs by broth microdilution method", "format": "functional"}, "[10]": {"test_system": "Candida albicans", "assay": "Antifungal activity against fluconazole-resistant Candida albicans 17# assessed as inhibition of microbial growth after 24 hrs by broth microdilution method", "format": "functional"}, "[11]": {"test_system": "Candida albicans", "assay": "Antifungal activity against fluconazole-resistant Candida albicans 632 assessed as inhibition of microbial growth after 24 hrs by broth microdilution method", "format": "functional"}, "[12]": {"test_system": "Candida albicans", "assay": "Antifungal activity against fluconazole-resistant Candida albicans 901 assessed as inhibition of microbial growth after 24 hrs by broth microdilution method", "format": "functional"}, "[13]": {"test_system": "Candida albicans", "assay": "Antifungal activity against fluconazole-resistant Candida albicans 904 assessed as inhibition of microbial growth after 24 hrs by broth microdilution method", "format": "functional"}, "[14]": {"target": "T1, Lanosterol 14-alpha demethylase (Candida albicans (strain SC5314 / ATCC MYA-2876) (Yeast), UniProt P10613)", "T1 sequence (P10613 whole entry)": "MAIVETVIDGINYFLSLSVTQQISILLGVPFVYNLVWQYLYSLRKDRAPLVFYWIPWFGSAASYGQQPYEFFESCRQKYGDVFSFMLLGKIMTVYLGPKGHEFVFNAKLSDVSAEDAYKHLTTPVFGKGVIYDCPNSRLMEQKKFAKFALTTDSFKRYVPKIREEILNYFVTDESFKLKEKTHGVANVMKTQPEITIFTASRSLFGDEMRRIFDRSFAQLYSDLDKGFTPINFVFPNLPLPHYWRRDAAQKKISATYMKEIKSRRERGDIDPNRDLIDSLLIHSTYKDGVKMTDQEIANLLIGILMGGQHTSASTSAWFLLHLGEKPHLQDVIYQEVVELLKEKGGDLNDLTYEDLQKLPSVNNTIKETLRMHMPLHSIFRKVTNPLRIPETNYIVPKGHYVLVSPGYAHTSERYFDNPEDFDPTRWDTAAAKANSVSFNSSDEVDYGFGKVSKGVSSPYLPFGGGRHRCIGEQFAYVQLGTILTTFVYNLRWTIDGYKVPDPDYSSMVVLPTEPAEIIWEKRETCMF", "assay": "Inhibition of CYP51 in Candida albicans ATCC SC5314 assessed as ergosterol level at 0.03125 ug/ml after 16 hrs by GC-MS analysis (reference value: 98.3%)", "design": "scale not given: the % may be the effect or the level left", "settings": "candida albicans sc5314, 16 h, at 0.03125 µg/mL"}, "[15]": {"target": "T1, Lanosterol 14-alpha demethylase", "assay": "Inhibition of CYP51 in Candida albicans ATCC SC5314 assessed as ergosterol level at […] ug/ml after 16 hrs by GC-MS analysis (reference value: 98.3%)", "design": "scale not given: the % may be the effect or the level left", "settings": "candida albicans sc5314, 16 h, dose 0.125 µg/ml"}, "[16]": {"target": "T1, Lanosterol 14-alpha demethylase", "assay": "Inhibition of CYP51 in Candida albicans ATCC SC5314 assessed as ergosterol level at 0.5 ug/ml after 16 hrs by GC-MS analysis (reference value: 98.3%)", "design": "scale not given: the % may be the effect or the level left", "settings": "candida albicans sc5314, 16 h, at 0.5 µg/mL"}, "[17]": {"target": "T1, Lanosterol 14-alpha demethylase", "assay": "Inhibition of CYP51 in Candida albicans ATCC SC5314 assessed as ergosterol level at 2 ug/ml after 16 hrs by GC-MS analysis (reference value: 98.3%)", "design": "scale not given: the % may be the effect or the level left", "settings": "candida albicans sc5314, 16 h, at 2 µg/mL"}, "[18]": {"target": "T1, Lanosterol 14-alpha demethylase", "assay": "Inhibition of CYP51 in Candida albicans ATCC SC5314 assessed as ergosterol level at 8 ug/ml after 16 hrs by GC-MS analysis (reference value: 98.3%)", "design": "scale not given: the % may be the effect or the level left", "settings": "candida albicans sc5314, 16 h, at 8 µg/mL"}, "[19]": {"target": "T1, Lanosterol 14-alpha demethylase", "assay": "Inhibition of CYP51 in Candida albicans ATCC SC5314 assessed as Obtusifoliol level at 0.03125 ug/ml after 16 hrs by GC-MS analysis (reference value: 0%)", "design": "scale not given: the % may be the effect or the level left", "settings": "candida albicans sc5314, 16 h, at 0.03125 µg/mL"}, "[20]": {"target": "T1, Lanosterol 14-alpha demethylase", "assay": "Inhibition of CYP51 in Candida albicans ATCC SC5314 assessed as Obtusifoliol level at […] ug/ml after 16 hrs by GC-MS analysis (reference value: 0%)", "design": "scale not given: the % may be the effect or the level left", "settings": "candida albicans sc5314, 16 h, dose 0.125 µg/ml"}, "[21]": {"target": "T1, Lanosterol 14-alpha demethylase", "assay": "Inhibition of CYP51 in Candida albicans ATCC SC5314 assessed as Obtusifoliol level at 0.5 ug/ml after 16 hrs by GC-MS analysis (reference value: 0%)", "design": "scale not given: the % may be the effect or the level left", "settings": "candida albicans sc5314, 16 h, at 0.5 µg/mL"}, "[22]": {"target": "T1, Lanosterol 14-alpha demethylase", "assay": "Inhibition of CYP51 in Candida albicans ATCC SC5314 assessed as Obtusifoliol level at 2 ug/ml after 16 hrs by GC-MS analysis (reference value: 0%)", "design": "scale not given: the % may be the effect or the level left", "settings": "candida albicans sc5314, 16 h, at 2 µg/mL"}, "[23]": {"target": "T1, Lanosterol 14-alpha demethylase", "assay": "Inhibition of CYP51 in Candida albicans ATCC SC5314 assessed as Obtusifoliol level at 8 ug/ml after 16 hrs by GC-MS analysis (reference value: 0%)", "design": "scale not given: the % may be the effect or the level left", "settings": "candida albicans sc5314, 16 h, at 8 µg/mL"}, "[24]": {"target": "T1, Lanosterol 14-alpha demethylase", "assay": "Inhibition of CYP51 in Candida albicans ATCC SC5314 assessed as lanosterol level at 0.03125 ug/ml after 16 hrs by GC-MS analysis (reference value: 1.7%)", "design": "scale not given: the % may be the effect or the level left", "settings": "candida albicans sc5314, 16 h, at 0.03125 µg/mL"}, "[25]": {"target": "T1, Lanosterol 14-alpha demethylase", "assay": "Inhibition of CYP51 in Candida albicans ATCC SC5314 assessed as lanosterol level at […] ug/ml after 16 hrs by GC-MS analysis (reference value: 1.7%)", "design": "scale not given: the % may be the effect or the level left", "settings": "candida albicans sc5314, 16 h, dose 0.125 µg/ml"}, "[26]": {"target": "T1, Lanosterol 14-alpha demethylase", "assay": "Inhibition of CYP51 in Candida albicans ATCC SC5314 assessed as lanosterol level at 0.5 ug/ml after 16 hrs by GC-MS analysis (reference value: 1.7%)", "design": "scale not given: the % may be the effect or the level left", "settings": "candida albicans sc5314, 16 h, at 0.5 µg/mL"}, "[27]": {"target": "T1, Lanosterol 14-alpha demethylase", "assay": "Inhibition of CYP51 in Candida albicans ATCC SC5314 assessed as lanosterol level at 2 ug/ml after 16 hrs by GC-MS analysis (reference value: 1.7%)", "design": "scale not given: the % may be the effect or the level left", "settings": "candida albicans sc5314, 16 h, at 2 µg/mL"}, "[28]": {"target": "T1, Lanosterol 14-alpha demethylase", "assay": "Inhibition of CYP51 in Candida albicans ATCC SC5314 assessed as lanosterol level at 8 ug/ml after 16 hrs by GC-MS analysis (reference value: 1.7%)", "design": "scale not given: the % may be the effect or the level left", "settings": "candida albicans sc5314, 16 h, at 8 µg/mL"}, "[29]": {"target": "T1, Lanosterol 14-alpha demethylase", "assay": "Inhibition of CYP51 in Candida albicans ATCC SC5314 assessed as Eburicol level at 0.03125 ug/ml after 16 hrs by GC-MS analysis (reference value: 0%)", "design": "scale not given: the % may be the effect or the level left", "settings": "candida albicans sc5314, 16 h, at 0.03125 µg/mL"}, "[30]": {"target": "T1, Lanosterol 14-alpha demethylase", "assay": "Inhibition of CYP51 in Candida albicans ATCC SC5314 assessed as Eburicol level at […] ug/ml after 16 hrs by GC-MS analysis (reference value: 0%)", "design": "scale not given: the % may be the effect or the level left", "settings": "candida albicans sc5314, 16 h, dose 0.125 µg/ml"}, "[31]": {"target": "T1, Lanosterol 14-alpha demethylase", "assay": "Inhibition of CYP51 in Candida albicans ATCC SC5314 assessed as Eburicol level at 0.5 ug/ml after 16 hrs by GC-MS analysis (reference value: 0%)", "design": "scale not given: the % may be the effect or the level left", "settings": "candida albicans sc5314, 16 h, at 0.5 µg/mL"}, "[32]": {"target": "T1, Lanosterol 14-alpha demethylase", "assay": "Inhibition of CYP51 in Candida albicans ATCC SC5314 assessed as Eburicol level at 2 ug/ml after 16 hrs by GC-MS analysis (reference value: 0%)", "design": "scale not given: the % may be the effect or the level left", "settings": "candida albicans sc5314, 16 h, at 2 µg/mL"}, "[33]": {"target": "T1, Lanosterol 14-alpha demethylase", "assay": "Inhibition of CYP51 in Candida albicans ATCC SC5314 assessed as Eburicol level at 8 ug/ml after 16 hrs by GC-MS analysis (reference value: 0%)", "design": "scale not given: the % may be the effect or the level left", "settings": "candida albicans sc5314, 16 h, at 8 µg/mL"}, "[34]": {"test_system": "Candida albicans", "assay": "Anti-biofilm activity in Candida albicans CPCC400616 assessed as inhibition of biofilm formation incubated for 24 hrs with 24 hrs precultured fungal suspension by XTT assay", "format": "functional"}, "[35]": {"test_system": "Candida albicans", "assay": "Antifungal activity against Candida albicans ATCC SC5314 infected in mouse model of candidiasis assessed as reduction in kidney fungal burden at 0.6 mg/kg/day, ip dosed at 2 hrs post infection and dosed for 4 days", "format": "functional, organism-based", "settings": "time 4.0 day"}}, "note": "Activity calls are given as the source filed them. The rule behind the calls is not given here."}
{"molecule": "OC(Cn1cncn1)(Cn1cncn1)c1ccc(F)cc1F", "note": "[FLUCONAZOLE]", "values": [{"measurement": "MIC", "setting": "[1]", "value": 4, "unit": "µg/mL"}, {"measurement": "MIC", "setting": "[2]", "value": 1, "unit": "µg/mL"}, {"measurement": "MIC", "setting": "[3]", "value": 4, "unit": "µg/mL"}, {"measurement": "MIC", "setting": "[4]", "value": 4, "unit": "µg/mL"}, {"measurement": "MIC", "setting": "[5]", "value": 32, "unit": "µg/mL"}, {"measurement": "MIC", "setting": "[6]", "value": 32, "unit": "µg/mL"}, {"measurement": "MIC", "setting": "[7]", "value": 4, "unit": "µg/mL"}, {"measurement": "MIC", "setting": "[8]", "value": "> 128", "unit": "µg/mL"}, {"measurement": "MIC", "setting": "[9]", "value": "> 128", "unit": "µg/mL"}, {"measurement": "MIC", "setting": "[10]", "value": 128, "unit": "µg/mL"}, {"measurement": "MIC", "setting": "[11]", "value": "> 128", "unit": "µg/mL"}, {"measurement": "MIC", "setting": "[12]", "value": "> 128", "unit": "µg/mL"}, {"measurement": "MIC", "setting": "[13]", "value": "> 128", "unit": "µg/mL"}, {"measurement": "Activity", "setting": "[14]", "value": 86.34, "unit": "%"}, {"measurement": "Activity", "setting": "[15]", "value": 80.8, "unit": "%"}, {"measurement": "Activity", "setting": "[16]", "value": 78.9, "unit": "%"}, {"measurement": "Activity", "setting": "[17]", "value": 19.8, "unit": "%"}, {"measurement": "Activity", "setting": "[18]", "value": 4.2, "unit": "%"}, {"measurement": "Activity", "setting": "[19]", "value": 1, "unit": "%"}, {"measurement": "Activity", "setting": "[20]", "value": 1.6, "unit": "%"}, {"measurement": "Activity", "setting": "[21]", "value": 2.9, "unit": "%"}, {"measurement": "Activity", "setting": "[22]", "value": 9.5, "unit": "%"}, {"measurement": "Activity", "setting": "[23]", "value": 11.4, "unit": "%"}, {"measurement": "Activity", "setting": "[24]", "value": 9.8, "unit": "%"}, {"measurement": "Activity", "setting": "[25]", "value": 12.4, "unit": "%"}, {"measurement": "Activity", "setting": "[26]", "value": 11.6, "unit": "%"}, {"measurement": "Activity", "setting": "[27]", "value": 7.2, "unit": "%"}, {"measurement": "Activity", "setting": "[28]", "value": 14.1, "unit": "%"}, {"measurement": "Activity", "setting": "[29]", "value": 2.9, "unit": "%"}, {"measurement": "Activity", "setting": "[30]", "value": 5.3, "unit": "%"}, {"measurement": "Activity", "setting": "[31]", "value": 6.7, "unit": "%"}, {"measurement": "Activity", "setting": "[32]", "value": 63.5, "unit": "%"}, {"measurement": "Activity", "setting": "[33]", "value": 70.3, "unit": "%"}, {"measurement": "MIC", "setting": "[34]", "value": "> 1020", "unit": "µg/mL"}, {"measurement": "Activity", "setting": "[35]", "value": "Active"}]}
